# Data as given in PMC8624133, “10th Trends in Medical Mycology Held on 8 to 11 October 2021, Aberdeen, Scotland, Organized by the European Confederation of Medical Mycology (ECMM)” (Journal of Fungi, 2021).
# Read-outs that look alike come from different tables or passages of the source. Starred links: 1 amine or outer side, 2 acyl side, 3 side chain; linkers in the order of their positions; H or OH if unused. Positions of bridges follow the written chain, without caps; N, C: chain ends. Non-standard residues stand in square brackets, D forms with d. Residues, ends and D or L forms follow the SMILES beside them. *: point of attachment. pTerphenylCO(4''-OnC5H11) = CCCCCOc1ccc(-c2ccc(-c3ccc(C(=O)*)cc3)cc2)cc1; Orn(4R-OH,5R-OH) = O=C([C@H](C[C@@H](O)[C@@H](O)N[*:3])N[*:1])[*:2]; hTyr(3S-OH,4S-OH) = N[C@H](C(=O)O)[C@H](O)[C@@H](O)c1ccc(O)cc1; Pro(3S-OH,4S-Me) = C[C@H]1CN[C@H](C(=O)O)[C@H]1O; Hyp = O=C(O)[C@@H]1C[C@@H](O)CN1
# Key:
# Trichophyton spp. = test: Agar-based screening method; assay type: cell-based; settings: 0.5 McF, 5 days, 30 °C
# Protocol: Inter-experimental variation was evaluated by testing 10 isolates on three different days. Single-centre validation: After determining the optimal conditions for the agar screening method, 112 molecularly identified Trichophyton spp. clinical isolates were tested.
# McLDM strains = test: EUCAST MIC, S. cerevisiae overexpressing M. circinelloides LDM, resistance phenotypes; assay type: cell-based, Saccharomyces cerevisiae
# [1] = test system: serious or life-threatening pulmonary aspergillosis; test: Special Needs program: inhaled opelconazole in patients; assay type: in vivo, human
# Text: Opelconazole has been supplied to patients with serious or life-threatening pulmonary aspergillosis who have not responded to available mold-active therapies under a Special Needs program regulated in the United Kingdom by the Medicines and Healthcare products Regulatory Agency. Successful outcomes in the first two patients who developed invasive pulmonary aspergillosis due to infections with A. fumigatus complex shortly after lung transplantation have been reported [Pagani 2020].
# [2] = following inhaled delivery, ref Colley T et al., 2017, 2019; cited from earlier work
# Text: A potent, effective inhaled anti-fungal agent with prolonged lung tissue residence and minimal systemic […] would be a valuable adjunct to current therapeutic options. To date, treatment using inhaled antifungal agents has been limited to repurposing available systemic medicines. Opelconazole is a novel triazole antifungal agent which was specifically designed for inhaled use and which is being developed as an inhaled treatment for pulmonary fungal disease.
# Sporothrix brasiliensis = test: Murine subcutaneous sporotrichosis model; assay type: in vivo, Balb/c mice
# Protocol: Materials & Methods: 50 Balb/c mice, male, five to seven-week-old, were subcutaneous infected (left footpad) by a clinical isolate of S. brasiliensis (5.4 × 10^7 yeast/mice). Treatments started seven days post-inoculation (p.i) in all five groups (10 mice/each): G1 control group (placebo—receiving just the diluent of the drugs), G2 treatment group (itraconazole—ITZ 50 mg/kg); G3 to G5 DD treatment groups, 1, 5 and 10 mg/kg, respectively. All mice were treated once a day by oral gavage, for 30 consecutive days. Physical conditions and behavior were daily evaluated, and individual weight was weekly determined. At the 32nd day p.i. (48 h after the end of the treatments) animals were euthanasied and lung, liver, brain, kidneys, testicle and footpad were recovered aseptically and homogenized to mycological analysis. Fungal burden in each organ was measured by quantitatively counting colony-forming units (CFU). The determination of colony forming units (CFU)/gram of tissue (g) of S. brasiliensis in internal organs of groups were compared by non-parametric tests using Kruskal-Wallis combined with Wilcoxon. The weight loss assay was calculated considering the percentage of loss and/or increase between the value corresponding to the fungal inoculation day and to the end of the treatment.
# [3] = test system: C. auris clinical strains; test: organism not typed; assay type: cell-based, Candida auris; settings: range, 78 strains from patients with COVID-19
# Aspergillus tubingensis = test: EUCAST susceptibility; assay type: cell-based; settings: read-out: MIC
# Protocol: The fungus was identified as Aspergillus niger and liposomal amphotericine B was switched to anidulafungin pending susceptibility testing as the patient had pre-existing […] (eGFR CKD-EPI 40 mL/min/1.73 m²). […] Despite increasing the anidulafungin dosage to 200 mg daily and adequate voriconazol levels, serum galactomannan levels remained elevated (index 2.1 at discharge). […] Since no extracardiac sources were found and the patient did well clinically, they were discharched. Anidulafungin was switched to caspofungin to facilitate ongoing IV treatment in the outpatient setting. […] The patient died shortly after. Obduction was not performed.
# [4] = test system: Rasamsonia argillacea species complex; test: Antifungal susceptibility testing; assay type: cell-based; settings: sputum isolate of a CF patient
# [5] = test system: invasive C. glabrata strains; test: YeastOne Sensititre colorimetric broth microdilution; assay type: cell-based, Candida glabrata; settings: Nakaseomyces glabratus
# Protocol: Material and Method: Thirty-six clinical isolates of invasive C. glabrata strains were analyzed in this study. Minimum inhibitory concentrations (MICs) were determined using colorimetric broth microdilution (YeastOneSensititre, Trek diagnostics). Genomic DNA was isolated using Qiagen DNA extraction Kit. The FKS1 and FKS2 gene fragment were amplified and PCR products were purified prior to sequencing. Double-strand sequencing of PCR products was performed using Sanger sequencing methodology. Sequences were analyzed with MEGA-6 software to identify specific SNP combination against wild-type sequences of C. glabrata.
# [6] = test system: Parathyridaria percutanea; test: In vitro antifungal susceptibility; assay type: cell-based
# C. fermentati = test: EUCAST E. Def 7.3.2 microdilution; assay type: cell-based, Candida fermentati; settings: n = 2
# C. glabrata = test: ARIA surveillance, CLSI M27 broth microdilution; assay type: cell-based, Candida glabrata; settings: CLSI M60
# Protocol: Materials & Methods: Isolates (n = 730) were collected and re-identified by MALDI-TOF or molecular methods. […] Percentage susceptibility (%S) or wild-type (%WT) were calculated according to CLSI breakpoints (CLSI supplement M60) or epidemiological cut-off values (CLSI supplement M59), respectively.
# [7] = test system: Phaeoacremonium parasiticum; test: Antifungal susceptibility testing; assay type: cell-based
# Protocol: Results: Cultures for bacteria were sterile. Culture on Sabouraud was positive after 5 days of incubation, showing slow growing and initially white colonies. […] Its identification was performed by sequencing the internal transcribed spacer (ITS) region of ribosomal DNA, being the isolate identified as Phaeoacremonium parasiticum (100% homology).
# C. guilliermondii = test: EUCAST E. Def 7.3.2 microdilution; assay type: cell-based, Candida guilliermondii; settings: n = 62
# Candida auris isolates = test: microbe, parasite or virus in culture; assay type: cell-based
# C. glabrata isolates = test: Rapid XTT assay based on EUCAST E.Def 7.3; assay type: cell-based, Candida glabrata; settings: […], mean ± SD
# C. auris = test: EUCAST EDef 7.3.1 MIC and checkerboard microdilution; assay type: cell-based, Candida auris
# Protocol: Methods: We studied 22 C. auris isolates obtained from different clinical samples from the Hospital La Fe, Valencia, Spain (eight from blood culture, seven from oropharynx and seven from urine cultures). Candida parapsilosis ATCC 22019 and Candida krusei ATCC 6258 were used as quality controls. The minimum inhibitory concentration (MIC) was determined according to the European Committee on Antibiotic Susceptibility Testing (EUCAST) EDef 7.3.1 document. The interaction between citral and the rest of antifungal drugs was assessed by a checkerboard microdilution method. […] The in vitro interaction of the drug combinations was interpreted in terms of the fractional inhibitory concentration index (FICI) as follows: FICI < 1, synergistic; FICI equal to 1, additive; and FICI > 1, indifferent or antagonistic.
# [8] = test system: C. albicans and C. glabrata; test: FUNGINOS candidemia survey, susceptibility according to CLSI; assay type: cell-based; settings: share of isolates
# [9] = test system: invasive and mucocutaneous fungal infections; test: FURI and CARES open-label studies combined; assay type: in vivo, human; settings: 84 patients
# Text: Methods: FURI subjects were eligible for enrollment if they had proven or probable severe mucocutaneous candidiasis, invasive candidiasis, invasive aspergillosis, or other fungal diseases with evidence of treatment failure, intolerance, or toxicity related to a currently approved standard-of-care antifungal treatment or if they were unable to receive an approved oral antifungal option (e.g., susceptibility of the organism) and a continued IV antifungal therapy was clinically undesirable or unfeasible.
# [10] = test system: refractory fungal disease; test: FURI Phase 3 open-label study, refractory subset; assay type: in vivo, human; settings: 44 refractory patients
# Text: Methods: FURI patients were eligible for enrollment if they have proven or probable, severe mucocutaneous candidiasis, invasive candidiasis or invasive aspergillosis and documented evidence of failure, intolerance, or toxicity related to a currently approved standard-of-care antifungal treatment or could not receive approved oral antifungal options (e.g., susceptibility of the organism) and continued IV antifungal therapy was clinically undesirable or unfeasible.
# R. delemar = test: Murine mucormycosis, immunosuppressed mice infected intratracheally; assay type: in vivo, ICR mice; settings: n = 20/arm
# Protocol: (§1) Methods & Materials: In vitro susceptibility was conducted by the CLSI M38 method using a clinical isolate of Rhizopus delemar (a common cause of mucormycosis). ICR mice were immunosuppressed with cyclophosphamide and cortisone acetate on days −2, +3, and +8, relative to infection with intratracheally instilled R. delemar. […] Mice survival through Day +21 served as the primary endpoint.
# R. delemar 99–880 = test: CLSI M38 in vitro susceptibility; assay type: cell-based, Rhizopus delemar
# Protocol: as §1
# [11] = 11 treated patients and 1 on prophylaxis
structure (smiles),measurement,setting,value
CCC(C)(C)c1ccc(CC(C)CN2C[C@@H](C)O[C@@H](C)C2)cc1 (stereo partly shown) [amorolfine],optimal agar concentration preventing growth of WT isolates,Trichophyton spp.,0.5 mg/L
"CC(C)(C)C(O)C(Oc1ccc(Cl)cc1)n1cncn1 (stereo not shown) [TDM, triadimenol]",resistance characteristics,McLDM strains,same resistance characteristics as FLC
Cc1cc(N2CCN(c3ccc(C(=O)Nc4ccc(F)cc4)cc3)CC2)ccc1OC[C@@H]1CO[C@@](Cn2cncn2)(c2ccc(F)cc2F)C1 [opelconazole],drug-drug interactions,[1]; [11],no drug-drug interactions reported
same,tolerability,[1]; [11],generally well tolerated
same,Favorable responses at 3 months,"[1]; patients who received opelconazole as treatment after no response to mold-active therapies, number of patients",9 out of the 11
same,local concentrations in the lung,[2],high
same,systemic bioavailability,[2],minimal
"c1ccc([Se][Se]c2ccccc2)cc1 [DD, Diphenyl diselenide]",weight loss during treatment vs control group,Sporothrix brasiliensis; DD 5 mg/kg,statistically higher rate of weight loss
same,fungal burden of internal organs vs placebo group,"Sporothrix brasiliensis; oral gavage once a day, 30 days, ITZ 50 mg/kg, DD 1, 5 or 10 mg/kg",higher fungal burdens
"CCCCCOc1ccc(-c2ccc(-c3ccc(C(=O)N[C@H]4C[C@@H](O)[C@@H](O)NC(=O)[C@@H]5[C@@H](O)[C@@H](C)CN5C(=O)[C@H]([C@@H](C)O)NC(=O)[C@H]([C@H](O)[C@@H](O)c5ccc(O)cc5)NC(=O)[C@@H]5C[C@@H](O)CN5C(=O)[C@H]([C@@H](C)O)NC4=O)cc3)cc2)cc1 [anidulafungin] ({pTerphenylCO(4''-OnC5H11)}-[Orn(4R-OH,5R-OH)]T[Hyp][hTyr(3S-OH,4S-OH)]T[Pro(3S-OH,4S-Me)]; lactam 1-C)",MIC,[3],0.015 to 8 µg/mL
same,MIC,Aspergillus tubingensis,0.03 µg/mL
same,minimal inhibitory concentrations (MIC),[4],low MIC
same,MIC,"[5]; 36 clinical isolates, read-out: median (Min–Max) MIC",0.06 µg/mL
same,MIC,[5]; isolate with FKS2 I661T,0.06 µg/mL
same,in vitro susceptibility category,[6],resistance
same,GM,C. fermentati,0.25 µg/mL
same,MIC Range,C. fermentati,0.25 µg/mL
same,susceptibility,C. glabrata; Italy,15.8%
same,susceptibility,C. glabrata; Panama,91.7%
same,"minimal inhibitory concentrations (MIC), in words",[7],higher
same,MIC50,C. guilliermondii; Meyerozyma guilliermondii,0.25 µg/mL
same,MIC90,C. guilliermondii; Meyerozyma guilliermondii,0.5 µg/mL
same,GM,C. guilliermondii,0.304 µg/mL
same,MIC Range,C. guilliermondii,0.008 to 1 µg/mL
same,categorised as resistant on MIC,Candida auris isolates; CDC guidelines,none
same,MIC,"Candida auris isolates; Candidozyma auris, […], IQR given, read-out: median MIC",0.25 µg/mL
same,XTT-absorbance in drug-treated wells,C. glabrata isolates; drug-free 0.37 ± 0.04,0.11 ± 0.03
same,XTT-absorbance in drug-treated wells,C. glabrata isolates; drug-free 0.39 ± 0.05,0.25 ± 0.06
same,MIC of anidulafungin in combination with citral,C. auris,0.016 µg/mL
same,MIC,"C. auris; Candidozyma auris, 22 clinical isolates",0.125 µg/mL
same,non-susceptibility,[8],2%
"CC(C)[C@@H](C)[C@@]1(C)CC[C@]2(C)[C@H]3CC[C@@H]4[C@@]5(COC[C@@]4(C)[C@@H](OC[C@](C)(N)C(C)(C)C)[C@H](n4ncnc4-c4ccncc4)C5)C3=CC[C@@]2(C)[C@@H]1C(=O)O [ibrexafungerp, Ibrexafungerp]",progression of disease,[9],5.9%
same,stable disease,[9],27.1%
same,"complete response, partial response and clinical improvement","[9]; oral, DRC-determined",65.1%
same,progression of disease,[10],6.8%
same,stable disease,[10],22.7%
same,"complete response, partial response or clinical improvement","[10]; oral, DRC-determined",59.1%
"CC(C)[C@@H](C)[C@@]1(C)CC[C@]2(C)[C@H]3CC[C@@H]4[C@@]5(COC[C@@]4(C)[C@@H](OC[C@](C)(N)C(C)(C)C)[C@H](n4ncnc4-c4ccncc4)C5)C3=CC[C@@]2(C)[C@@H]1C(=O)O [IBREXA, Ibrexafungerp]",% Survival,"R. delemar; through Day +21, placebo 0",35%
same,Median Survival,"R. delemar; treatment from 24 h post infection, IBREXA 30 mg/kg po BID 7 d, LAMB 10 mg/kg iv 4 d, POSA 30 mg/kg po QD 7 d, placebo 8",15 days
same,minimum effective concentration (MEC),R. delemar 99–880,> 8 µg/mL
